Assay results taken from PubChem BioAssay (NCI).
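Briefly, cells in 96-well plates were exposed to five compound concentrations for 48 h, and endpoints were estimated by linear interpolation. GI50 = concentration required for 50% inhibition of growth. At the TGI there is no net growth.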

Key:
Assay in all cases: DTP human tumour cell line panel, 48 h
OVCAR-3 ovarian = test system: OVCAR-3 ovarian
RXF 393 renal = test system: RXF 393 renal
A498 renal = test system: A498 renal
MDA-MB-435 = test system: MDA-MB-435
IGROV1 ovarian = test system: IGROV1 ovarian
MDA-MB-231 breast = test system: MDA-MB-231 breast
NCI-H460 lung = test system: NCI-H460 lung
PC-3 prostate = test system: PC-3 prostate
NCI/ADR-RES ovarian = test system: NCI/ADR-RES ovarian
SK-MEL-28 melanoma = test system: SK-MEL-28 melanoma
NCI-H226 lung = test system: NCI-H226 lung
MCF7 breast = test system: MCF7 breast
U251 CNS = test system: U251 CNS
SK-MEL-5 melanoma = test system: SK-MEL-5 melanoma
HCT-116 colon = test system: HCT-116 colon
OVCAR-4 ovarian = test system: OVCAR-4 ovarian
LOX IMVI melanoma = test system: LOX IMVI melanoma
A549 NSCLC = test system: A549 NSCLC
CAKI-1 renal = test system: CAKI-1 renal
ACHN renal = test system: ACHN renal
CCRF-CEM leukemia = test system: CCRF-CEM leukemia
HCC-2998 colon = test system: HCC-2998 colon
UACC-257 melanoma = test system: UACC-257 melanoma
MALME-3M melanoma = test system: MALME-3M melanoma
SF-268 CNS = test system: SF-268 CNS
UACC-62 melanoma = test system: UACC-62 melanoma
HOP-62 NSCLC = test system: HOP-62 NSCLC
TK-10 renal = test system: TK-10 renal
COLO 205 colon = test system: COLO 205 colon
NCI-H23 lung = test system: NCI-H23 lung
OVCAR-5 ovarian = test system: OVCAR-5 ovarian
OVCAR-8 ovarian = test system: OVCAR-8 ovarian
RPMI-8226 leukemia = test system: RPMI-8226 leukemia
SK-MEL-2 melanoma = test system: SK-MEL-2 melanoma
EKVX NSCLC = test system: EKVX NSCLC
BT-549 breast = test system: BT-549 breast
HL-60(TB) leukemia = test system: HL-60(TB) leukemia
SR leukemia = test system: SR leukemia
K-562 leukemia = test system: K-562 leukemia
SNB-19 CNS = test system: SNB-19 CNS
M14 melanoma = test system: M14 melanoma
HS 578T breast = test system: HS 578T breast
KM12 colon = test system: KM12 colon
SNB-75 CNS = test system: SNB-75 CNS
DU-145 prostate = test system: DU-145 prostate
HOP-92 NSCLC = test system: HOP-92 NSCLC
NCI-H522 lung = test system: NCI-H522 lung
MOLT-4 leukemia = test system: MOLT-4 leukemia
UO-31 renal = test system: UO-31 renal
SN12C renal = test system: SN12C renal
SK-OV-3 ovarian = test system: SK-OV-3 ovarian
SF-295 CNS = test system: SF-295 CNS
HT29 colon = test system: HT29 colon
SW-620 colon = test system: SW-620 colon
T-47D breast = test system: T-47D breast
SF-539 CNS = test system: SF-539 CNS
HCT-15 colon = test system: HCT-15 colon
786-0 renal = test system: 786-0 renal

## CN1CCN(c2nc(-c3cnc4ccccc4n3)cc3ccccc23)CC1
OVCAR-3 ovarian
  GI50: 18.8 µM
  TGI: > 100 µM
RXF 393 renal
  GI50: 4.97 µM
  TGI: 15.1 µM
A498 renal
  GI50: > 68.4 µM
  TGI: > 100 µM
MDA-MB-435
  GI50: 3.53 µM
  TGI: 12.7 µM
IGROV1 ovarian
  GI50: 7.96 µM
  TGI: > 55.2 µM
MDA-MB-231 breast
  GI50: 6.47 µM
  TGI: > 50.3 µM
NCI-H460 lung
  GI50: 3.67 µM
  TGI: 13.1 µM
PC-3 prostate
  GI50: 10.3 µM
  TGI: > 100 µM
NCI/ADR-RES ovarian
  GI50: 21.5 µM
  TGI: > 100 µM
SK-MEL-28 melanoma
  GI50: 2.29 µM
  TGI: 5.27 µM
NCI-H226 lung
  GI50: 35.8 µM
  TGI: > 100 µM
MCF7 breast
  GI50: 6.61 µM
  TGI: 20.7 µM
U251 CNS
  GI50: 8 µM
  TGI: > 48.4 µM
SK-MEL-5 melanoma
  GI50: 7.39 µM
  TGI: > 50.4 µM
HCT-116 colon
  GI50: 3.51 µM
  TGI: 8.19 µM
OVCAR-4 ovarian
  GI50: > 43.8 µM
  TGI: > 91.1 µM
LOX IMVI melanoma
  GI50: 2.82 µM
  TGI: 7.66 µM
A549 NSCLC
  GI50: > 32.1 µM
  TGI: > 100 µM
CAKI-1 renal
  GI50: 9.79 µM
  TGI: > 100 µM
ACHN renal
  GI50: 9.5 µM
  TGI: > 66.3 µM
CCRF-CEM leukemia
  GI50: 9.44 µM
  TGI: > 90.3 µM
HCC-2998 colon
  GI50: 2.17 µM
  TGI: 5.11 µM
UACC-257 melanoma
  GI50: 1.89 µM
  TGI: 3.91 µM
MALME-3M melanoma
  GI50: 4.45 µM
  TGI: 9.15 µM
SF-268 CNS
  GI50: > 46.8 µM
  TGI: > 100 µM
UACC-62 melanoma
  GI50: 2.84 µM
  TGI: 8.23 µM
HOP-62 NSCLC
  GI50: > 38.2 µM
  TGI: > 58.9 µM
TK-10 renal
  GI50: > 41.8 µM
  TGI: > 62.7 µM
COLO 205 colon
  GI50: 1.84 µM
  TGI: 3.67 µM
NCI-H23 lung
  GI50: 30.7 µM
  TGI: > 100 µM
OVCAR-5 ovarian
  GI50: > 36 µM
  TGI: > 72.9 µM
OVCAR-8 ovarian
  GI50: 10.3 µM
  TGI: > 100 µM
RPMI-8226 leukemia
  GI50: 3.04 µM
  TGI: 13 µM
SK-MEL-2 melanoma
  GI50: 30.8 µM
  TGI: > 54.7 µM
EKVX NSCLC
  GI50: > 56.8 µM
  TGI: > 100 µM
BT-549 breast
  GI50: 39.6 µM
  TGI: > 79.3 µM
HL-60(TB) leukemia
  GI50: 4.21 µM
  TGI: 9.46 µM
SR leukemia
  GI50: 2.02 µM
  TGI: 6.04 µM
K-562 leukemia
  GI50: 2.3 µM
  TGI: 6.34 µM
SNB-19 CNS
  GI50: > 53.7 µM
  TGI: > 100 µM
M14 melanoma
  GI50: 1.88 µM
  TGI: 3.65 µM
HS 578T breast
  GI50: 15.1 µM
  TGI: > 67.6 µM
KM12 colon
  GI50: > 64.6 µM
  TGI: > 100 µM
SNB-75 CNS
  GI50: 16.7 µM
  TGI: > 88.6 µM
DU-145 prostate
  GI50: > 52.1 µM
  TGI: > 100 µM
HOP-92 NSCLC
  GI50: 2.76 µM
  TGI: > 69.7 µM
NCI-H522 lung
  GI50: 18.1 µM
  TGI: > 56.8 µM
MOLT-4 leukemia
  GI50: 4.7 µM
  TGI: > 48.9 µM
UO-31 renal
  GI50: 3.67 µM
  TGI: > 49.3 µM
SN12C renal
  GI50: 12.6 µM
  TGI: > 48.6 µM
SK-OV-3 ovarian
  GI50: > 44.8 µM
  TGI: > 72 µM
SF-295 CNS
  GI50: 7.88 µM
  TGI: 20.3 µM
HT29 colon
  GI50: 3.39 µM
  TGI: 11.7 µM
SW-620 colon
  GI50: 2.22 µM
  TGI: 5.11 µM
T-47D breast
  GI50: 12.4 µM
  TGI: 31.2 µM
SF-539 CNS
  GI50: 8 µM
  TGI: > 51.2 µM
HCT-15 colon
  GI50: 2.95 µM
  TGI: 9.19 µM
786-0 renal
  GI50: 10.9 µM
  TGI: 24 µM
